Source: patent EP3782997A1, “FUSED PYRIMIDINE COMPOUNDS AND PHARMACEUTICAL COMPOSITIONS THEREOF FOR THE TREATMENT OF FIBROTIC DISEASES” (Galapagos N.V., priority 2019, dated 2021)

Target: hENPP2 (Homo sapiens, UniProt Q13822)
Test: Human ENPP2 (hENPP2) biochemical assay using LPC as substrate
Conditions: 150 µM LPC (palmitoyl 16:0), 37°C for 30 min
Method: The principle of the assay conswasts in quantifying the released choline with an enzymatic method using choline oxidase and peroxidase. Choline oxydation by choline oxydase releases betaine and peroxide. The latter was quantified in presence of HRP that converts the peroxide detection agent TOOS (CAS# 82692-93-1) and 4-aminoantipyrine into quinoneimine dye. The appearance of quinoneimine dye was measured spectrophotometrically at 555 nm and was proportional to the amount of choline released by ENPP2. Inhibition of ENPP2 results in a decrease of the signal.
Compound IC50 values were determined in a hENPP2 (UniProtKB/SwwassProt Sequence ref Q13822) biochemical assay using LPC as substrate.
5 µL of a dilution series of compound, starting from 50 µM highest concentration, 1/3 dilution, was added to the wells. hENPP2 was used at a final concentration of 1 µg/mL or 3 µg/mL (it will be appreciated by the skilled person that the potency read out was independent of the enzyme concentration). The enzyme was diluted in 50 mM Trwas-HCl pH 8.5, 500 mM NaCl, 5 mM KCl, 10 mM CaCl2, 0.1% fatty acid free BSA in a total volume of 10 µL. The reaction was started by the addition of 10 µL of 150 µM LPC (palmitoyl 16:0; Avanti Polar Lipids, Inc., Cat# 855675) diluted in the same buffer as described above and the mixture was incubated at 37°C for 30 min. The reaction was terminated and choline quantified by the addition of a 25 µL of a mixture containing 0.6 U/mL of choline oxidase, 0.6 U/mL of peroxydase, 1.8 mM TOOS, 1.2 mM amino-antipyrine, 20 mM EGTA (stop-developer solution) diluted in the buffer described above. […] was read on an Envision plate reader (PerkinElmer, Inc.) after an incubation of 30 min at room temperature (excitation 555 nm).

| Compound | IC50 |
| --- | --- |
| Cc1cc(C)cc(Nc2ncc3c(n2)CN(C2CN(C(=O)c4ccc5[nH]nnc5c4)CCC2O)C3)c1 (single isomer, unassigned) [Cpd 111, 1H-benzotriazol-5-yl-[3-[2-(3,5-dimethylanilino)-5,7-dihydropyrrolo[3,4-d]pyrimidin-6-yl]-4-hydroxy-1-piperidyl]methanone] | 500 to 1000 nM |
| Cc1cc(C)cc(Nc2ncc3c(n2)CCN(C2CN(C(=O)c4ccc5[nH]c(=O)oc5c4)C2)C3)c1 [Cpd 1, 6-[3-[2-(3,S-dimethylanilino)-7,8-dihydro-5H-pyrido[4,3-d]pyrimidin-6-yl]azetidine-1-carbonyl]-3H-1,3-benzoxazol-2-one] | 0.01 to 100 nM |
| Cc1cc(C)cc(Nc2ncc3c(n2)CN(C2CN(C(=O)c4cccc(C(=O)O)c4)C2)C3)c1 [Cpd 25, 3-[3-[2-(3,5-dimethylanilino)-5,7-dihydropyrrolo[3,4-d]pyrimidin-6-yl]azetidine-1-carbonyl]benzoic acid] | > 1000 nM |
| Cc1cc(C)cc(Nc2ncc3c(n2)CN(C2CCN(C(=O)c4cnc5[nH]nnc5c4)CC2)C3)c1 [Cpd 66, [4-[2-(3,5-dimethylanilino)-5,7-dihydropyrrolo[3,4-d]pyrimidin-6-yl]-1-piperidyl]-(3H-triazolo[4,5-b]pyridin-6-yl)methanone] | 500 to 1000 nM |
| Cc1cc(C)cc(Nc2ncc3c(n2)CN(C2CN(C(=O)c4cnc5nn[nH]c5c4)C2)C3)c1 [Cpd 67, [3-[2-(3,5-dimethylanilino)-5,7-dihydropyrrolo[3,4-d]pyrimidin-6-yl]azetidin-1-yl]-(1H-triazolo[4,5-b]pyridin-6-yl)methanone] | > 1000 nM |
| Cc1cc(C)cc(Nc2ncc3c(n2)CCCN(C2CCN(C(=O)c4cnc5[nH]nnc5c4)CC2)C3)c1 [Cpd 76, [4-[2-(3,5-dimethylanilino)-5,7,8,9-tetrahydropyrimido[5,4-c]azepin-6-yl]-1-piperidyl]-(3H-triazolo[4,5-b]pyridin-6-yl)methanone] | > 1000 nM |
| Cc1cc(C)cc(Nc2ncc3c(n2)CN(C2CN(C(=O)c4ccc5[nH]nnc5c4)CC2(F)F)C3)c1 (stereo not shown) [Cpd 101, 1H-benzotriazol-5-yl-[4-[2-(3,5-dimethylanilino)-5,7-dihydropyrrolo[3,4-d]pyrimidin-6-yl]-3,3-difluoro-pyrrolidin-1-yl]methanone] | 100 to 500 nM |
| Cc1cc(C)cc(Nc2ncc3c(n2)CN(C2CCN(C(=O)c4ccc5[nH]cnc5c4)CC2)C3)c1 [Cpd 108, 1H-benzimidazol-5-yl-[4-[2-(3,5-dimethylanilino)-5,7-dihydropyrrolo[3,4-d]pyrimidin-6-yl]-1-piperidyl]methanone] | 500 to 1000 nM |
| Cc1cc(C)cc(Nc2ncc3c(n2)CN(C2CCN(C(=O)c4ccc5oc(=O)[nH]c5c4)CC2)C3)c1 [Cpd 118, 5-[4-[2-(3,5-dimethylanilino)-5,7-dihydropyrrolo[3,4-d]pyrimidin-6-yl]piperidine-1-carbonyl]-3H-1,3-benzoxazol-2-one] | > 1000 nM |
| Cc1cc(C)cc(Nc2ncc3c(n2)CN([C@H]2CCN(C(=O)c4ccc(S(N)(=O)=O)cc4)[C@@H](C)C2)C3)c1 [Cpd 124, 4-[(2S,4S)-4-[2-(3,5-dimethylanilino)-5,7-dihydropyrrolo[3,4-d]pyrimidin-6-yl]-2-methyl-piperidine-1-carbonyl]benzenesulfonamide] | > 1000 nM |
| Cc1cc(C)cc(Nc2ncc3c(n2)CN([C@H]2CCN(C(=O)c4ccc(S(=O)(=O)NC(=O)C(C)C)cc4)[C@@H](C)C2)C3)c1 [Cpd 131, N-[4-[(2S,4S)-4-[2-(3,5-dimethylanilino)-5,7-dihydropyrrolo[3,4-d]pyrimidin-6-yl]-2-methyl-piperidine-1-carbonyl]phenyl]sulfonyl-2-methyl-propanamide] | > 1000 nM |
| Cc1cc(C)cc(Nc2ncc3c(n2)CN([C@H]2CCN(C(=O)c4ccc(C(=O)O)cc4)[C@@H](C)C2)C3)c1 [Cpd 132, 4-[(2S,4S)-4-[2-(3,5-dimethylanilino)-5,7-dihydropyrrolo[3,4-d]pyrimidin-6-yl]-2-methyl-piperidine-1-carbonyl]benzoic acid] | > 1000 nM |
| Cc1cc(C)cc(Nc2ncc3c(n2)CN([C@H]2CCN(C(=O)c4ccc(C(=O)NS(C)(=O)=O)cc4)[C@@H](C)C2)C3)c1 [Cpd 133, 4-[(2S,4S)-4-[2-(3,5-dimethylanilino)-5,7-dihydropyrrolo[3,4-d]pyrimidin-6-yl]-2-methyl-piperidine-1-carbonyl]-N-methylsulfonylbenzamide] | > 1000 nM |

Second part, the compound after the results:

| IC50 | Compound |
| --- | --- |
| 0.01 to 100 nM | COC(=O)[C@H]1CN(C(=O)c2ccc3[nH]nnc3c2)CC[C@@H]1N1Cc2cnc(Nc3cc(C)cc(C)c3)nc2C1 (single isomer, unassigned) [Cpd 136] |
| 0.01 to 100 nM | CCOc1cc2[nH]nnc2cc1C(=O)N1CC[C@H](N2Cc3cnc(Nc4cc(C)cc(C)c4)nc3C2)C[C@H]1C (single isomer, unassigned) [Cpd 138] |
| 0.01 to 100 nM | CCOc1cc2[nH]nnc2cc1C(=O)N1CC[C@@H](N2Cc3cnc(Nc4cc(C)cc(C)c4)nc3C2)C[C@H]1C (single isomer, unassigned) [Cpd 139] |
| 0.01 to 100 nM | C[C@@H]1C[C@@H](N2Cc3cnc(Nc4ccc(OC(F)(F)F)cc4)nc3C2)CCN1C(=O)c1ccc2[nH]nnc2c1 (single isomer, unassigned) [Cpd 164] |
| 0.01 to 100 nM | C[C@@H]1C[C@H](N2Cc3cnc(Nc4ccc(OC(F)(F)F)cc4)nc3C2)CCN1C(=O)c1ccc2[nH]nnc2c1 (single isomer, unassigned) [Cpd 169] |
| 0.01 to 100 nM | Cc1cc(C)cc(Nc2ncc3c(n2)CN(C2CN(C(=O)c4ccc5[nH]c(=O)oc5c4)C2)C3)c1 [Cpd 3, 6-[3-[2-(3,5-dimethylanilino)-5,7-dihydropyrrolo[3,4-d]pyrimidin-6-yl]azetidine-1-carbonyl]-3H-1,3-benzoxazol-2-one] |
| 100 to 500 nM | Cc1cc(C)nc(Nc2ncc3c(n2)CN(C2CCN(C(=O)c4ccc5[nH]c(=O)oc5c4)CC2)C3)c1 [Cpd 60, 6-[4-[2-[(4,6-dimethyl-2-pyridyl)amino]-5,7-dihydropyrrolo[3,4-d]pyrimidin-6-yl]piperidine-1-carbonyl]-3H-1,3-benzoxazol-2-one] |
| 0.01 to 100 nM | Cc1cc(C)cc(Nc2ncc3c(n2)CN(C2CN(C(=O)c4ccc5[nH]nnc5n4)C2)C3)c1 [Cpd 86, [3-[2-(3,5-dimethylanilino)-5,7-dihydropyrrolo[3,4-d]pyrimidin-6-yl]azetidin-1-yl]-(1H-triazolo[4,5-b]pyridin-5-yl)methanone] |
| 0.01 to 100 nM | Cc1cc(C)cc(Nc2ncc3c(n2)CCN(C2CCN(C(=O)c4ccc5[nH]nnc5c4)[C@@H](C)C2)C3)c1 (stereo partly drawn) [Cpd 96, 1H-benzotriazol-5-yl-[(2S)-4-[2-(3,5-dimethylanilino)-7,8-dihydro-5H-pyrido[4,3-d]pyrimidin-6-yl]-2-methyl-1-piperidyl]methanone] |
| 100 to 500 nM | Cc1cc(C)cc(Nc2ncc3c(n2)CCN([C@@H]2CCN(C(=O)c4ccc5[nH]nnc5c4)[C@H](C)C2)C3=O)c1 [Cpd 97, 6-[(2R,4R)-1-(1H-benzotriazole-5-carbonyl)-2-methyl-4-piperidyl]-2-(3,5-dimethylanilino)-7,8-dihydropyrido[4,3-d]pyrimidin-5-one] |
| 0.01 to 100 nM | Cc1cc(C)cc(Nc2ncc3c(n2)CN(C2CCN(C(=O)c4ccc5[nH]nnc5c4)C(C)(C)C2)C3)c1 (stereo not shown) [Cpd 100, 1H-benzotriazol-5-yl-[4-[2-(3,5-dimethylanilino)-5,7-dihydropyrrolo[3,4-d]pyrimidin-6-yl]-2,2-dimethyl-1-piperidyl]methanone] |
| 0.01 to 100 nM | COC(=O)[C@@H]1C[C@H](N2Cc3cnc(Nc4cc(C)cc(C)c4)nc3C2)CCN1C(=O)c1ccc2[nH]nnc2c1 [Cpd 104, methyl (2S,4R)-1-(1H-benzotriazole-5-carbonyl)-4-[2-(3,5-dimethylanilino)-5,7-dihydropyrrolo[3,4-d]pyrimidin-6-yl]pipe ridine-2-carboxylate] |
| 0.01 to 100 nM | Cc1cc(C)cc(Nc2ncc3c(n2)CN(C2CCN(C(=O)c4cc5nn[nH]c5cc4F)C(C)(C)C2)C3)c1 (stereo not shown) [Cpd 117, [4-[2-(3,5-dimethylanilino)-5,7-dihydropyrrolo[3,4-d]pyrimidin-6-yl]-2,2-dimethyl-1-piperidyl]-(6-fluoro-1H-benzotriazol-5-yl)methanone] |
| 0.01 to 100 nM | COc1cc(C)cc(Nc2ncc3c(n2)CN([C@@H]2CCN(C(=O)c4ccc5[nH]nnc5c4)[C@H](C)C2)C3)c1 [Cpd 125, 1H-benzotriazol-5-yl-[(2R,4R)-4-[2-(3-methoxy-5-methyl-anilino)-5,7-dihydropyrrolo[3,4-d]pyrimidin-6-yl]-2-methyl-1-piperidyl]methanone] |
| 0.01 to 100 nM | Cc1cc(C)cc(Nc2ncc3c(n2)CN(C2(C)CCN(C(=O)c4ccc5[nH]nnc5c4)CC2)C3)c1 [Cpd 130, 1H-benzotriazol-5-yl-[4-[2-(3,5-dimethylanilino)-5,7-dihydropyrrolo[3,4-d]pyrimidin-6-yl]-4-methyl-1-piperidyl]methanone] |
